Values joined by “and” are separate entries in the source; they are usually repeats but may differ in a detail not shown here. Equal values may be shown once.
Test system: platelets
Assay: Clinical trial, metastatic pancreatic cancer: platelet count / thrombocytopenia grade
Assay type: in vivo, human
Set-up: Platelet count at start of cycle, Cycle 1: unit not given here; Platelet count at start of cycle, Cycle 4 / Platelet count: unit: ×10^3/μl blood
Excerpt: Male and non-pregnant, non-lactating, female patients, aged 18 to 75, with histologically confirmed metastatic adenocarcinoma of the pancreas were enrolled in the trial. […] Treatment consisted of a series of 28-day cycles, wherein the last day of one cycle (e.g., day 28, cycle 1) was immediately followed by the first day of the next cycle (e.g., day 1, cycle 2). […] Nab-paclitaxel and gemcitabine therapy was given as described in the prescribing information for Abraxane® and Gemzar®. See also, Von Hoff et al., 2011, J. […] As a substantially non-anticoagulant heparinoid, ODSH can be administered at a dose that is greater than the fully anticoagulant dose of unfractionated heparin, without concern for anticoagulant effect, as shown in the Results below. An initial run-in period was conducted in which ten patients were treated with the gemcitabine, nab-paclitaxel, and ODSH regimen described above. After all ten patients had completed at least one 28-day cycle, the data were reviewed and an open-label randomized study initiated, with two arms (ODSH arm and Control arm). In the ODSH arm, the dosing regimen was the same as in the run-in period (gemcitabine, nab-paclitaxel, and ODSH). In the Control arm, patients were given the same gemcitabine and nab-paclitaxel regimen as in the run-in period, but without ODSH. […] Platelet counts, total white blood cell counts, and absolute neutrophil counts were performed. Grading of thrombocytopenia and/or neutropenia was performed according to the following standards: [table]

[1] = ODSH 4 mg/kg bolus + 0.375 mg/kg/hr 48 h, adjunct to gemcitabine/nab-paclitaxel
[2] = ODSH adjunct to gemcitabine/nab-paclitaxel
[3] = ODSH adjunctive to gemcitabine and nab-paclitaxel, blood drawn before treatment that day, individual patients
[4] = all samples (FIG. 10A), ODSH adjunct to gemcitabine/nab-paclitaxel

## substantially 2-O, 3-O desulfated heparin [ODSH]
[1]
  Patients with platelet count at beginning of fourth cycle greater than at beginning of first cycle: 9 out of 10
  Patients with platelet count at beginning of third cycle greater than at beginning of first cycle: Eight out of 9
ODSH 4 mg/kg bolus + 0.375 mg/kg/hr 48 h, days 1, 8, 15 of 28-day cycles, adjunct to gemcitabine/nab-paclitaxel
  Patients with platelet count at beginning of second cycle greater than at beginning of first cycle: Ten out of 10 and 10/10
[2]
  Patients exhibiting thrombocytopenia at the start of the second cycle: None
  Patients exhibiting thrombocytopenia at the start of the third cycle: one of 8
  Patients with platelet counts higher at the beginning of cycle 3 than at the beginning of cycle 2: 6/9
ODSH adjunctive to gemcitabine and nab-paclitaxel, blood drawn before treatment administration (before any chemotherapy), individual patients
  Platelet Count, Cycle 1 Day 1: 313 ×10^3/μl blood and 264 ×10^3/μl blood and 191 ×10^3/μl blood and 274 ×10^3/μl blood and 276 ×10^3/μl blood and 120 ×10^3/μl blood and 271 ×10^3/μl blood and 342 ×10^3/μl blood and 429 ×10^3/μl blood and 180 ×10^3/μl blood
[3]
  Platelet Count, Cycle 1 Day 8: 205 ×10^3/μl blood and 167 ×10^3/μl blood and 108 ×10^3/μl blood and 150 ×10^3/μl blood and 239 ×10^3/μl blood and 86 ×10^3/μl blood (2×) and 230 ×10^3/μl blood and 206 ×10^3/μl blood and 214 ×10^3/μl blood
  Platelet Count, Cycle 1 Day 15: 135 ×10^3/μl blood and 178 ×10^3/μl blood and 108 ×10^3/μl blood and 75 ×10^3/μl blood and 220 ×10^3/μl blood and 76 ×10^3/μl blood and 181 ×10^3/μl blood and 134 ×10^3/μl blood and 260 ×10^3/μl blood and 63 ×10^3/μl blood
  Platelet Count, Cycle 2 Day 1: 419 ×10^3/μl blood and 322 ×10^3/μl blood and 312 ×10^3/μl blood and 574 ×10^3/μl blood and 445 ×10^3/μl blood and 175 ×10^3/μl blood and 417 ×10^3/μl blood and 614 ×10^3/μl blood and 532 ×10^3/μl blood and 274 ×10^3/μl blood
  Platelet Count, Cycle 2 Day 8: 434 ×10^3/μl blood and 336 ×10^3/μl blood and 241 ×10^3/μl blood and 424 ×10^3/μl blood and 05 ×10^3/μl blood and 83 ×10^3/μl blood and 402 ×10^3/μl blood and 375 ×10^3/μl blood and 257 ×10^3/μl blood and 95 ×10^3/μl blood
  Platelet Count, Cycle 2 Day 15: 209 ×10^3/μl blood and 207 ×10^3/μl blood and 132 ×10^3/μl blood and 167 ×10^3/μl blood and 186 ×10^3/μl blood (2×) and 70 ×10^3/μl blood and 178 ×10^3/μl blood and 170 ×10^3/μl blood and 54 ×10^3/μl blood
  Platelet Count, Cycle 3 Day 1: 510 ×10^3/μl blood and 327 ×10^3/μl blood and 362 ×10^3/μl blood and 655 ×10^3/μl blood and 418 ×10^3/μl blood and 123 ×10^3/μl blood and 487 ×10^3/μl blood and 628 ×10^3/μl blood and 387 ×10^3/μl blood and −361 ×10^3/μl blood
  Platelet Count, Cycle 3 Day 8: 435 ×10^3/μl blood and 325 ×10^3/μl blood and 362 ×10^3/μl blood (2×) and 388 ×10^3/μl blood and 223 ×10^3/μl blood and 119 ×10^3/μl blood and 355 ×10^3/μl blood and 371 ×10^3/μl blood and 179 ×10^3/μl blood
  Platelet Count, Cycle 3 Day 15: 207 ×10^3/μl blood and 170 ×10^3/μl blood and 163 ×10^3/μl blood and 188 ×10^3/μl blood and 171 ×10^3/μl blood (2×) and 63 ×10^3/μl blood and 172 ×10^3/μl blood and 189 ×10^3/μl blood and 71 ×10^3/μl blood
  Platelet Count, Cycle 4 Day 1: 586 ×10^3/μl blood and 402 ×10^3/μl blood and 292 ×10^3/μl blood and 478 ×10^3/μl blood and 667 ×10^3/μl blood and 184 ×10^3/μl blood and 406 ×10^3/μl blood and 626 ×10^3/μl blood and 382 ×10^3/μl blood and 387 ×10^3/μl blood
  Platelet Count, Cycle 4 Day 8: 464 ×10^3/μl blood and 339 ×10^3/μl blood and 355 ×10^3/μl blood and 468 ×10^3/μl blood and 193 ×10^3/μl blood and 188 ×10^3/μl blood and 507 ×10^3/μl blood and 448 ×10^3/μl blood and 185 ×10^3/μl blood
  Platelet Count, Cycle 4 Day 15: 203 ×10^3/μl blood and 170 ×10^3/μl blood and 140 ×10^3/μl blood and 163 ×10^3/μl blood and 149 ×10^3/μl blood and 129 ×10^3/μl blood and 339 ×10^3/μl blood and 169 ×10^3/μl blood and 202 ×10^3/μl blood and 78 ×10^3/μl blood
  Platelet Count, Cycle 5 Day 1: 499 ×10^3/μl blood and 351 ×10^3/μl blood and 266 ×10^3/μl blood and 389 ×10^3/μl blood and 275 ×10^3/μl blood and 106 ×10^3/μl blood and 512 ×10^3/μl blood and 607 ×10^3/μl blood and 427 ×10^3/μl blood and −288 ×10^3/μl blood
  Platelet Count, Cycle 5 Day 8: 231 ×10^3/μl blood and 288 ×10^3/μl blood and 241 ×10^3/μl blood and 325 ×10^3/μl blood and 192 ×10^3/μl blood and 94 ×10^3/μl blood and 378 ×10^3/μl blood and 377 ×10^3/μl blood and 403 ×10^3/μl blood and 188 ×10^3/μl blood
  Platelet Count, Cycle 5 Day 15: 132 ×10^3/μl blood and 169 ×10^3/μl blood and 153 ×10^3/μl blood and 109 ×10^3/μl blood and 58 ×10^3/μl blood and 193 ×10^3/μl blood and 194 ×10^3/μl blood and 72 ×10^3/μl blood
  Platelet Count, Cycle 6 Day 1: 288 ×10^3/μl blood and 370 ×10^3/μl blood and 294 ×10^3/μl blood and 489 ×10^3/μl blood and 114 ×10^3/μl blood and 371 ×10^3/μl blood and 503 ×10^3/μl blood and 275 ×10^3/μl blood
  Platelet Count, Cycle 6 Day 8: 384 ×10^3/μl blood and 321 ×10^3/μl blood and 207 ×10^3/μl blood and 336 ×10^3/μl blood and 85 ×10^3/μl blood and 313 ×10^3/μl blood and 493 ×10^3/μl blood and 148 ×10^3/μl blood
  Platelet Count, Cycle 6 Day 15: 169 ×10^3/μl blood and 162 ×10^3/μl blood and 128 ×10^3/μl blood and 102 ×10^3/μl blood and 54 ×10^3/μl blood and 338 ×10^3/μl blood and 164 ×10^3/μl blood and 72 ×10^3/μl blood
[4]
  Mean and median platelet counts at day 15 of treatment cycles 2 and 3: remained in the normal range
  Mean and median platelet counts on the first day of treatment cycles 2 and 3: above 150,000
Day 1 of cycle 1, before any chemotherapy, ODSH adjunctive to gemcitabine and nab-paclitaxel, individual patients
  Platelet count at start of cycle, Cycle 1: 264 and 191 and 274 and 276 and 120 and 271 and 342 and 429 and 180 and 313
Day 1 of cycle 2, ODSH adjunctive to gemcitabine and nab-paclitaxel, individual patients
  Platelet count at start of cycle, Cycle 2: 322 and 312 and 574 and 445 and 175 and 417 and 614 and 537 and 274 and 419
Day 1 of cycle 3, ODSH adjunctive to gemcitabine and nab-paclitaxel, individual patients
  Platelet count at start of cycle, Cycle 3: 327 and 362 and 655 and 418 and 123 and 628 and 387 and 361 and 510
Day 1 of cycle 4, ODSH adjunctive to gemcitabine and nab-paclitaxel, individual patients
  Platelet count at start of cycle, Cycle 4: 402 and 292 and 478 and 667 and 184 and 406 and 626 and 382 and 387 and 586
Day 1 of cycle 5, ODSH adjunctive to gemcitabine and nab-paclitaxel, individual patients
  Platelet count at start of cycle, Cycle 5: 351 and 389 and 275 and 512 and 427 and 288 and 499
Day 1 of cycle 6, ODSH adjunctive to gemcitabine and nab-paclitaxel, individual patients
  Platelet count at start of cycle, Cycle 6: 489 and 371 and 503 and 275 and 288
Day 1 of cycle 7, ODSH adjunctive to gemcitabine and nab-paclitaxel, individual patients
  Platelet count at start of cycle, Cycle 7: 454
Day 15, first cycle, ODSH adjunct to gemcitabine/nab-paclitaxel
  Patients with no more than mild thrombocytopenia after two doses of treatment: 90%

Reference: patent US11229664B2, “Treatment of myelosuppression” (priority 2012, dated 2022)
